2 compounds from EPA's ToxValDB 9.5 (doi:10.2903/j.efsa.2014.3485) can be followed below.

Values after ≈ are worked out from the molar mass of the structure shown.

In series [1] the test system is Mus musculus. To be noted: developmental; development.
Series [2] has as its system Neomysis kadiakensis. To be noted: chronic/long-term; duration: 28 days; reproduction.
In series [3] the test system is Hypoaspis aculeifer. The settings on record: chronic/long-term.
The test system of series [4] is Colinus virginianus. To be noted: oral.
Series [5] concerns Apis mellifera. The settings on record: acute, duration: 48 hours, mortality.
Series [6] has as its system Rattus norvegicus. To be noted: oral; for LD50: acute, mortality.
For series [7], the system named is Tagia sp.
In series [8] the test system is Canidae. The settings on record: chronic; duration: 1 years; oral; Dog Other; histopathology: nonneoplastic.
Series [9] has as its system Daphnia magna. To be noted: chronic/long-term; duration: 21 days; reproduction.
In series [10] the test system is Oncorhynchus mykiss.
Series [11] concerns Typhlodromus pyri. The experiment in a line: LR50; higher = less toxic. The settings on record: not reported; mortality.
Setting [12] is: reproduction developmental, diet, reproduction.

The compound `CC(C)(C)C(O)(CCc1ccc(Cl)cc1)Cn1cncn1` (stereo not given) [Tebuconazole] came in with an LOAEL in series [1] of 10 mg/kg-day. Besides, the NOEC in series [2] amounted to 0.035 mg/L; in series [3], 50 mg/kg; in series [7] (chronic/long-term, duration: 56 days, reproduction) it was 10 mg/kg; in series [9], 0.01 mg/L; in series [10] (chronic/long-term, duration: 83 days, growth), 0.012 mg/L. In addition, the LC50 in series [4] (acute, diet, mortality) was > 703 mg/kg-day; in [7] (acute, duration: 14 days, mortality), 1380 mg/kg; in series [10] (acute, duration: 96 hours, mortality), 4.4 µg/mL (≈ 14.3 µM). In addition, the LD50 is 1990 mg/kg-day in series [4] (acute, mortality); > 200 µg/piece in [5] (dermal); > 83 µg/piece in [5] (oral, unspecified); 1700 mg/kg-day in series [6]. This compound also had an LOEL in [4] (setting [12]) of 12.4 mg/kg-day. Besides, the NOEL in series [4] (setting [12]) was found to be 5.8 mg/kg-day; in [6] (reproduction developmental, diet, body weight), 10 mg/kg-day. Besides, the NOAEL in series [8] was 3 mg/kg-day. This compound showed an LR50 in series [11] of 58 g/ha.
As to `NC(Cc1ncn[nH]1)C(=O)O` (stereo not given) [1,2,4-Triazole-3-alanine], in series [4] (acute, diet, mortality), the LC50 was > 1370 mg/kg-day. Also, in series [6], the LD50 was > 5000 mg/kg-day.

Broadly, the LOAEL is the lowest tested level that showed an adverse finding. What is called NOAEL is the highest dose or exposure tested at which no adverse effect was seen.
